Target: T1, DPP-IV activity from human colonic carcinoma cell extracts (Caco-2) (Homo sapiens, UniProt P27487)
T1 construct: Cell extract is prepared from cells solubilized in 10 mM Tris HCI, 0.15 M NaCI, 0.04 t.i.u.aprotinin, 0.5% nonidet-P40; host or cells: Caco-2, differentiated to induce DPP-IV expression; detergent-solubilized extract
Assay: caco-2 DPP-IV Assay (CaCo2 extract, fluorescence, H-Gly-Pro-AMC substrate)
Format: biochemical
Conditions: solubilized Caco-2 protein extract; 11-point dose-response curves, 4 parameter logistic function
Experimental: As indicated above, all of the compounds, and their corresponding pharmaceutically-acceptable salts, are useful in inhibiting DPP-IV. […] The human colonic carcinoma cell line Caco-2 was obtained from the American Type Culture Collection (ATCC HTB 37). Differentiation of the cells to induce DPP-IV expression was accomplished as described by Reisher, et al. (Proc. Natl. Acad. Sci., Vol. 90, pgs. 5757-5761 (1993)). Cell extract is prepared from cells solubilized in 10 mM Tris HCI, 0.15 M NaCI, 0.04 t.i.u.aprotinin, 0.5% nonidet-P40, pH 8.0, which is centrifuged at 35,000 g for 30 min at 4° C. to remove cell debris.
The […] assay is conducted by adding 20 μg solubilized Caco-2 protein or purified porcine kidney DPP-IV, in a final volume of 10 ul in assay buffer (25 mM Tris HCl pH 7.4, 140 mM NaCl, 10 mM KCl, 0.1% Triton-x-100) to microtiter plate wells. […] The endpoint is determined by measuring absorbance at 405 nm in a Labsystems microtiter plate reader.
Activity of CaCo2 extract is also measured employing a modified version of the assay described in Kubota, et al. (Clin. Exp. Immunol., Vol. 89, pgs. 192-197 (1992)). […] After the 10 min. reaction, florescence is measured using a Tecan Ultra fluorimeter (Excitation 360 nm Emission 465 nm). […]

T1 sequence (P27487 whole entry): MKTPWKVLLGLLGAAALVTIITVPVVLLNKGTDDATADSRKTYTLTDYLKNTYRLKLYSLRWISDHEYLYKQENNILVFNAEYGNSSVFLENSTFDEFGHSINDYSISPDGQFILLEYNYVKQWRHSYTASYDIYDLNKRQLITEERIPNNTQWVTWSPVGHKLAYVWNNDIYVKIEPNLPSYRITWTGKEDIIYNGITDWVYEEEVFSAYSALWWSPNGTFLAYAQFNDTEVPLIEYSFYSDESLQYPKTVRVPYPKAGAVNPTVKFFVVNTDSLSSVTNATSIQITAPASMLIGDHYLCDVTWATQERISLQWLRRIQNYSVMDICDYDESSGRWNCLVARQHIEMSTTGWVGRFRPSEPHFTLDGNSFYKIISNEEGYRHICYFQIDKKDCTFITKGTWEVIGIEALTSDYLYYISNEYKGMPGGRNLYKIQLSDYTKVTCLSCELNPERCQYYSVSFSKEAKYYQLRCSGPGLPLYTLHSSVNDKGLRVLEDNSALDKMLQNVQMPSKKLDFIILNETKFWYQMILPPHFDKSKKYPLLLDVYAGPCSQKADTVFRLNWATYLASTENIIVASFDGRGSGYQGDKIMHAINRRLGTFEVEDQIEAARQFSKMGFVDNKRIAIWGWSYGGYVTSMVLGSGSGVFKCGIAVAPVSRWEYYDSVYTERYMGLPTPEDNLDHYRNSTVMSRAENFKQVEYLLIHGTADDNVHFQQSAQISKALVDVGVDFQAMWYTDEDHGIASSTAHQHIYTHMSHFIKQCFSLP

IC50: 580 nM
SMILES: N[C@@H](CC(=O)NC1Cc2ccccc2NC1=O)Cc1ccccc1F (stereo partly drawn) [Example 1, (3R)-3-Amino-4-(2-fluorophenyl)-N-(2-oxo-1,2,3,4-tetrahydroquinolin-3-yl)butanamide]

— patent US20080009512A1, “Tetrahydroquinolones and Aza-Analogues Thereof for Use as Dpp-IV Inhibitors in the Treatment of Diabetes” (ASTRAZENECA AB, priority 2004, published 2008)
